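The compound was tested at five concentrations on cells cultured in 96-well plates, with a 48-hour exposure period. GI50 marks 50% less growth.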 Calls of active or inactive are those of the source. No stated cut-off is given here; in the data, active = GI50 up to about 1.1 µM and inactive = higher.
Experiments:
Assay in all cases: NCI-60 cell line screen, 48 h
NCI-H522 = system: NCI-H522
A498 = system: A498
SK-OV-3 = system: SK-OV-3
OVCAR-8 = system: OVCAR-8
786-0 = system: 786-0
CAKI-1 = system: CAKI-1
IGROV-1 = system: IGROV-1
UACC-257 = system: UACC-257
Malme-3M = system: Malme-3M
PC-3 = system: PC-3
U-251 = system: U-251
HT-29 = system: HT-29
COLO 205 = system: COLO 205
SK-MEL-2 = system: SK-MEL-2
HOP-62 = system: HOP-62
NCI/ADR-RES = system: NCI/ADR-RES
ACHN = system: ACHN
EKVX = system: EKVX
SNB-75 = system: SNB-75
MDA-MB-435 = system: MDA-MB-435
HCT-15 = system: HCT-15
MDA-MB-231 = system: MDA-MB-231
RPMI-8226 = system: RPMI-8226
DU-145 = system: DU-145
HCT-116 = system: HCT-116
SN12C = system: SN12C
HCC 2998 = system: HCC 2998
SF-539 = system: SF-539
MCF7 = system: MCF7
MDA-N = system: MDA-N
SK-MEL-28 = system: SK-MEL-28
Hs-578T = system: Hs-578T
RXF 393 = system: RXF 393
SNB-19 = system: SNB-19
M14 = system: M14
OVCAR-3 = system: OVCAR-3
UO-31 = system: UO-31
KM12 = system: KM12
SK-MEL-5 = system: SK-MEL-5
MOLT-4 = system: MOLT-4
NCI-H460 = system: NCI-H460
SW-620 = system: SW-620
BT-549 = system: BT-549
SF-295 = system: SF-295
HOP-92 = system: HOP-92
HL-60 = system: HL-60
TK-10 = system: TK-10
NCI-H226 = system: NCI-H226
OVCAR-5 = system: OVCAR-5
SF-268 = system: SF-268
CCRF-CEM = system: CCRF-CEM
T47D = system: T47D
A549 = system: A549
K562 = system: K562
NCI-H23 = system: NCI-H23
UACC-62 = system: UACC-62
OVCAR-4 = system: OVCAR-4
LOX IMVI = system: LOX IMVI
SR = system: SR

Cc1c2c(c(C)n1-c1ccccc1)C(=O)N(CCSC(=N)N)C2=O
GI50 (NCI-H522): 35.7 µM (inactive)
GI50 (A498): 32.4 µM (inactive)
GI50 (SK-OV-3): > 100 µM (inactive)
GI50 (OVCAR-8): 62.2 µM (inactive)
GI50 (786-0): > 100 µM (inactive)
GI50 (CAKI-1): 50 µM (inactive)
GI50 (IGROV-1): > 100 µM (inactive)
GI50 (UACC-257): 28.8 µM (inactive)
GI50 (Malme-3M): > 100 µM (inactive)
GI50 (PC-3): > 100 µM (inactive)
GI50 (U-251): 68.9 µM (inactive)
GI50 (HT-29): > 100 µM (inactive)
GI50 (COLO 205): > 100 µM (inactive)
GI50 (SK-MEL-2): 31.4 µM (inactive)
GI50 (HOP-62): 83.6 µM (inactive)
GI50 (NCI/ADR-RES): 59.6 µM (inactive)
GI50 (ACHN): 32.6 µM (inactive)
GI50 (EKVX): 9.75 µM (inactive)
GI50 (SNB-75): 15.6 µM (inactive)
GI50 (MDA-MB-435): 93.3 µM (inactive)
GI50 (HCT-15): > 100 µM
GI50 (MDA-MB-231): > 100 µM (inactive)
GI50 (RPMI-8226): > 100 µM (inactive)
GI50 (DU-145): > 100 µM (inactive)
GI50 (HCT-116): > 100 µM (inactive)
GI50 (SN12C): > 100 µM (inactive)
GI50 (HCC 2998): > 100 µM (inactive)
GI50 (SF-539): > 100 µM (inactive)
GI50 (MCF7): 32.1 µM (inactive)
GI50 (MDA-N): > 100 µM (inactive)
GI50 (SK-MEL-28): > 100 µM (inactive)
GI50 (Hs-578T): > 100 µM (inactive)
GI50 (RXF 393): 40.2 µM (inactive)
GI50 (SNB-19): > 100 µM (inactive)
GI50 (M14): > 100 µM (inactive)
GI50 (OVCAR-3): > 100 µM (inactive)
GI50 (UO-31): > 100 µM (inactive)
GI50 (KM12): > 100 µM (inactive)
GI50 (SK-MEL-5): 1.96 µM (inactive)
GI50 (MOLT-4): 14.2 µM (inactive)
GI50 (NCI-H460): 12.3 µM (inactive)
GI50 (SW-620): > 100 µM (inactive)
GI50 (BT-549): > 100 µM (inactive)
GI50 (SF-295): 22.6 µM (inactive)
GI50 (HOP-92): > 100 µM (inactive)
GI50 (HL-60): > 100 µM (inactive)
GI50 (TK-10): > 100 µM (inactive)
GI50 (NCI-H226): > 100 µM (inactive)
GI50 (OVCAR-5): > 100 µM (inactive)
GI50 (SF-268): > 100 µM (inactive)
GI50 (CCRF-CEM): > 100 µM (inactive)
GI50 (T47D): 1.9 µM (inactive)
GI50 (A549): > 100 µM (inactive)
GI50 (K562): > 100 µM (inactive)
GI50 (NCI-H23): 4.85 µM (inactive)
GI50 (UACC-62): > 100 µM (inactive)
GI50 (OVCAR-4): 9.29 µM (inactive)

CC(CCc1ccccc1)NCC(O)n1c(/N=N/N(C)C)nc2c1c(=O)n(C)c(=O)n2C (stereo not drawn)
GI50 (NCI-H522): > 100 µM (inactive)
GI50 (A498): > 100 µM (inactive)
GI50 (SK-OV-3): > 100 µM (inactive)
GI50 (OVCAR-8): > 100 µM (inactive)
GI50 (786-0): > 100 µM (inactive)
GI50 (CAKI-1): 88.7 µM (inactive)
GI50 (IGROV-1): > 100 µM (inactive)
GI50 (UACC-257): > 100 µM (inactive)
GI50 (Malme-3M): > 100 µM (inactive)
GI50 (PC-3): > 100 µM (inactive)
GI50 (U-251): > 100 µM (inactive)
GI50 (HT-29): > 100 µM (inactive)
GI50 (COLO 205): > 100 µM (inactive)
GI50 (SK-MEL-2): > 100 µM (inactive)
GI50 (HOP-62): > 100 µM (inactive)
GI50 (NCI/ADR-RES): > 100 µM (inactive)
GI50 (ACHN): > 100 µM (inactive)
GI50 (EKVX): > 100 µM (inactive)
GI50 (SNB-75): 9.62 µM (inactive)
GI50 (MDA-MB-435): > 100 µM (inactive)
GI50 (HCT-15): > 100 µM
GI50 (MDA-MB-231): > 100 µM (inactive)
GI50 (LOX IMVI): > 100 µM (inactive)
GI50 (RPMI-8226): > 100 µM (inactive)
GI50 (HCT-116): > 100 µM (inactive)
GI50 (SF-539): > 100 µM (inactive)
GI50 (MCF7): > 100 µM (inactive)
GI50 (MDA-N): > 100 µM (inactive)
GI50 (SK-MEL-28): > 100 µM (inactive)
GI50 (Hs-578T): > 100 µM (inactive)
GI50 (RXF 393): > 100 µM (inactive)
GI50 (SNB-19): > 100 µM (inactive)
GI50 (SR): 43.2 µM (inactive)
GI50 (M14): > 100 µM (inactive)
GI50 (OVCAR-3): > 100 µM (inactive)
GI50 (UO-31): > 100 µM (inactive)
GI50 (KM12): > 100 µM (inactive)
GI50 (SK-MEL-5): 78.7 µM (inactive)
GI50 (MOLT-4): > 100 µM (inactive)
GI50 (NCI-H460): 41.1 µM (inactive)
GI50 (SW-620): > 100 µM (inactive)
GI50 (BT-549): > 100 µM (inactive)
GI50 (SF-295): > 100 µM (inactive)
GI50 (HOP-92): > 100 µM (inactive)
GI50 (HL-60): 66.7 µM (inactive)
GI50 (TK-10): > 100 µM (inactive)
GI50 (NCI-H226): > 100 µM (inactive)
GI50 (OVCAR-5): > 100 µM (inactive)
GI50 (SF-268): > 100 µM (inactive)
GI50 (CCRF-CEM): > 100 µM (inactive)
GI50 (T47D): > 100 µM (inactive)
GI50 (A549): > 100 µM (inactive)
GI50 (K562): > 100 µM (inactive)
GI50 (NCI-H23): > 100 µM (inactive)
GI50 (UACC-62): > 100 µM (inactive)
GI50 (OVCAR-4): > 100 µM (inactive)
